How the values were obtained:
Type in all cases: in vivo
[1] = test system: barnyardgrass (Echinochloa crus-galli); test: Test B flooded paddy test; conditions: Flood
Source text: (§1) Plant species in the flooded paddy test consisted of rice (Oryza sativa), umbrella sedge (Cyperus difformis), ducksalad (Heteranthera limosa) and barnyardgrass (Echinochloa crus-galli) grown to the 2-leaf stage for testing. At time of treatment, test pots were flooded to 3 cm above the soil surface, treated by application of test compounds directly to the paddy water, and then maintained at that water depth for the duration of the test. Treated plants and controls were maintained in a greenhouse for 13 to 15 days, after which time all species were compared to controls and visually evaluated. Plant response ratings, summarized in Table B, are based on a scale of 0 to 100 where 0 is no effect and 100 is complete control. A dash (-) response means no test result.

[2] = test system: ducksalad (Heteranthera limosa); test: Test B flooded paddy test; conditions: Flood, scale 0 to 100
Source text: as §1

rice (Oryza sativa) = test: Test B flooded paddy test; conditions: Flood, scale 0 to 100
Source text: as §1

[3] = test system: umbrella sedge (Cyperus difformis); test: Test B flooded paddy test; conditions: Flood, scale 0 to 100
Source text: as §1

[4] = test system: wheat (Triticum aestivum); test: Test A postemergence; conditions: 0 to 100 scale, 0 no effect, 100 complete control, approx. 10 days
Source text: (§2) Seeds of barnyardgrass (Echinochloa crus-galli), large crabgrass (Digitaria sanguinalis), giant foxtail (Setaria faberii), morningglory (Ipomoea spp.), pigweed (Amaranthus retroflexus), velvetleaf (Abutilon theophrasti), wheat (Triticum aestivum) and corn (Zea mays) were planted into a blend of loam soil and sand and treated preemergence with a directed soil spray using test chemicals formulated in a non-phytotoxic solvent mixture which included a surfactant. At the same time these species were also treated with postemergence applications of test compounds formulated in the same manner. Plants ranged in height from 2 to 10 cm and were in the one- to two-leaf stage for the postemergence treatments. Treated plants and untreated controls were maintained in a greenhouse for approximately 10 days, after which time all treated plants were compared to untreated controls and visually evaluated for injury. Plant response ratings, summarized in Table A, are based on a 0 to 100 scale where 0 is no effect and 100 is complete control.

[5] = test system: morningglory (Ipomoea spp.); test: Test A postemergence; conditions: 0 to 100 scale, 0 no effect, 100 complete control, approx. 10 days
Source text: as §2

[6] = test system: barnyardgrass (Echinochloa crus-galli); test: Test A postemergence; conditions: 0 to 100 scale, 0 no effect, 100 complete control, approx. 10 days
Source text: as §2

[7] = test system: velvetleaf (Abutilon theophrasti); test: Test A postemergence; conditions: 0 to 100 scale, 0 no effect, 100 complete control, approx. 10 days
Source text: as §2

[8] = test system: giant foxtail (Setaria faberii); test: Test A postemergence; conditions: 0 to 100 scale, 0 no effect, 100 complete control, approx. 10 days
Source text: as §2

[9] = test system: pigweed (Amaranthus retroflexus); test: Test A postemergence; conditions: 0 to 100 scale, 0 no effect, 100 complete control, approx. 10 days
Source text: as §2

[10] = test system: large crabgrass (Digitaria sanguinalis); test: Test A postemergence; conditions: 0 to 100 scale, 0 no effect, 100 complete control, approx. 10 days
Source text: as §2

corn (Zea mays) [11] = test: Test A postemergence; conditions: 0 to 100 scale, 0 no effect, 100 complete control, approx. 10 days
Source text: as §2

[12] = test system: wheat (Triticum aestivum); test: Test A preemergence; conditions: 0 to 100 scale, 0 no effect, 100 complete control, approx. 10 days
Source text: as §2

[13] = test system: morningglory (Ipomoea spp.); test: Test A preemergence; conditions: 0 to 100 scale, 0 no effect, 100 complete control, approx. 10 days
Source text: as §2

[14] = test system: barnyardgrass (Echinochloa crus-galli); test: Test A preemergence; conditions: 0 to 100 scale, 0 no effect, 100 complete control, approx. 10 days
Source text: as §2

[15] = test system: velvetleaf (Abutilon theophrasti); test: Test A preemergence; conditions: 0 to 100 scale, 0 no effect, 100 complete control, approx. 10 days
Source text: as §2

[16] = test system: giant foxtail (Setaria faberii); test: Test A preemergence; conditions: 0 to 100 scale, 0 no effect, 100 complete control, approx. 10 days
Source text: as §2

[17] = test system: pigweed (Amaranthus retroflexus); test: Test A preemergence; conditions: 0 to 100 scale, 0 no effect, 100 complete control, approx. 10 days
Source text: as §2

[18] = test system: large crabgrass (Digitaria sanguinalis); test: Test A preemergence; conditions: 0 to 100 scale, 0 no effect, 100 complete control, approx. 10 days
Source text: as §2

corn (Zea mays) [19] = test: Test A preemergence; conditions: 0 to 100 scale, 0 no effect, 100 complete control, approx. 10 days
Source text: as §2

COCCn1c(-c2cccc(F)c2)c(Cl)nc(C(=O)C2=C(O)CCCC2=O)c1=O [Compound 7, 5-chloro-6-(3-fluorophenyl)-3-[(2-hydroxy-6-oxo-1-cyclohexen-1-yl)carbonyl]-1-(2-methoxyethyl)-2(1H)pyrazinone]
Plant response rating, Barnyardgrass ([1]; 31 g ai/ha, scale 0 to 100): 0
Plant response rating, Barnyardgrass ([1]; 62 g ai/ha, scale 0 to 100): 0
Plant response rating, Barnyardgrass ([1]; 125 g ai/ha, scale 0 to 100): 10
Plant response rating, Barnyardgrass ([1]; 250 g ai/ha, scale 0 to 100 (0 no effect, 100 complete control)): 20
Plant response rating, Ducksalad ([2]; 31 g ai/ha): 0
Plant response rating, Ducksalad ([2]; 62 g ai/ha): 40
Plant response rating, Ducksalad ([2]; 125 g ai/ha): 50
Plant response rating, Ducksalad ([2]; 250 g ai/ha): 80
Plant response rating, Rice (rice (Oryza sativa); 31 g ai/ha): 0
Plant response rating, Rice (rice (Oryza sativa); 62 g ai/ha): 0
Plant response rating, Rice (rice (Oryza sativa); 125 g ai/ha): 0
Plant response rating, Rice (rice (Oryza sativa); 250 g ai/ha): 15
Plant response rating, Sedge, Umbrella ([3]; 31 g ai/ha): 0
Plant response rating, Sedge, Umbrella ([3]; 62 g ai/ha): 20
Plant response rating, Sedge, Umbrella ([3]; 125 g ai/ha): 50
Plant response rating, Sedge, Umbrella ([3]; 250 g ai/ha): 75
Plant response rating, Wheat ([4]; 125 g ai/ha): 0
Plant response rating, Wheat ([4]; 500 g ai/ha): 0
Plant response rating, Morningglory ([5]; 125 g ai/ha): 80
Plant response rating, Morningglory ([5]; 500 g ai/ha): 90
Plant response rating, Barnyardgrass ([6]; 125 g ai/ha): 20
Plant response rating, Barnyardgrass ([6]; 500 g ai/ha): 80
Plant response rating, Velvetleaf ([7]; 125 g ai/ha): 100
Plant response rating, Velvetleaf ([7]; 500 g ai/ha): 100
Plant response rating, Foxtail, Giant ([8]; 125 g ai/ha): 0
Plant response rating, Foxtail, Giant ([8]; 500 g ai/ha): 0
Plant response rating, Pigweed ([9]; 125 g ai/ha): 80
Plant response rating, Pigweed ([9]; 500 g ai/ha): 90
Plant response rating, Crabgrass, Large ([10]; 125 g ai/ha): 0
Plant response rating, Crabgrass, Large ([10]; 500 g ai/ha): 10
Plant response rating, Corn (corn (Zea mays) [11]; 125 g ai/ha): 0
Plant response rating, Corn (corn (Zea mays) [11]; 500 g ai/ha): 20
Plant response rating, Wheat ([12]; 125 g ai/ha): 0
Plant response rating, Wheat ([12]; 500 g ai/ha): 0
Plant response rating, Morningglory ([13]; 125 g ai/ha): 0
Plant response rating, Morningglory ([13]; 500 g ai/ha): 20
Plant response rating, Barnyardgrass ([14]; 125 g ai/ha): 0
Plant response rating, Barnyardgrass ([14]; 500 g ai/ha): 10
Plant response rating, Velvetleaf ([15]; 125 g ai/ha): 0
Plant response rating, Velvetleaf ([15]; 500 g ai/ha): 20
Plant response rating, Foxtail, Giant ([16]; 125 g ai/ha): 0
Plant response rating, Foxtail, Giant ([16]; 500 g ai/ha): 0
Plant response rating, Pigweed ([17]; 125 g ai/ha): 0
Plant response rating, Pigweed ([17]; 500 g ai/ha): 50
Plant response rating, Crabgrass, Large ([18]; 125 g ai/ha): 0
Plant response rating, Crabgrass, Large ([18]; 500 g ai/ha): 0
Plant response rating, Corn (corn (Zea mays) [19]; 125 g ai/ha): 0
Plant response rating, Corn (corn (Zea mays) [19]; 500 g ai/ha): 0

Reference: US20140024527A1, “HERBICIDAL PYRAZINONES” (E I DU DE NEMOURS AND COMPANY, priority 2011, published 2014)
